Measurements reported in ChEMBL document CHEMBL4483862, “Open-source discovery of chemical leads for next-generation chemoprotective antimalarials” (2018).

Test system: Plasmodium berghei
Assay: Luciferase/luciferin-expressing antifolate-resistant parasites were used to infect a culture of HepG2 cells that were pre-incubated with compounds. Infected hepatocytes emit light due to the luciferase reaction. Assay results are presented as the percent inhibition of light emission compared to control. […]
Type: functional
Settings: sporozoite; for IC90: read-out: LUCIFERASE INFECTION ASSAY - IC90

| Compound | IC90 | also measured |
| --- | --- | --- |
| CN1N=C2c3ccccc3CCC2C1c1ccc(C(F)(F)F)cc1 (stereo not given) | 1.66 µM | IC50 (PBLUC_HILL_SLOPE 1.95, PBLUC_R_SQUARED 0.843, read-out: LUCIFERASE INFECTION ASSAY - IC50): 0.537 µM |
| COc1ccc(C(=O)NCC(C)(C)SCc2c(C)cc(C)cc2C)cc1 | > 8.88 µM | IC50 (PBLUC_HILL_SLOPE 1.94, PBLUC_R_SQUARED 0.532, read-out: LUCIFERASE INFECTION ASSAY - IC50): 3.09 µM |
| COc1cc(NC(=O)N2CCc3nc(Nc4cc(Cl)cc(Cl)c4)ncc3C2)cc(OC)c1OC | > 6.54 µM | IC50 (PBLUC_HILL_SLOPE 1.96, PBLUC_R_SQUARED 0.41, read-out: LUCIFERASE INFECTION ASSAY - IC50): 3.52 µM |
| CC(C)(C)c1cc(C(=O)N/N=C/c2ccc([N+](=O)[O-])s2)[nH]n1 | > 10.3 µM | IC50 (PBLUC_HILL_SLOPE 1.97, PBLUC_R_SQUARED 0.294, read-out: LUCIFERASE INFECTION ASSAY - IC50): 3.6 µM |
| O=C1NC(=O)/C(=C/c2cccc(C#Cc3ccccc3)c2)S1 | > 10.8 µM | IC50 (PBLUC_HILL_SLOPE 1.96, PBLUC_R_SQUARED 0.068, read-out: LUCIFERASE INFECTION ASSAY - IC50): 6.6 µM |
| Nc1ncc(-c2ccc(-c3ccccc3)cc2F)cc1-c1cncc2ccccc12 | > 8.43 µM | IC50 (PBLUC_HILL_SLOPE 1.93, PBLUC_R_SQUARED 0.0355, read-out: LUCIFERASE INFECTION ASSAY - IC50): > 8.43 µM |
| Cc1[nH]c2ccccc2c1C(=O)COc1ccc(N(C)S(=O)(=O)c2ccccc2F)cc1 | > 10 µM | IC50 (PBLUC_HILL_SLOPE 1.92, PBLUC_R_SQUARED 0.479, read-out: LUCIFERASE INFECTION ASSAY - IC50): 5.26 µM |
| COc1cc(-c2nc3ccc(NC(=O)COc4ccccc4)cn3n2)cc(OC)c1OC | > 10 µM | IC50 (PBLUC_HILL_SLOPE 1.9, PBLUC_R_SQUARED 0.239, read-out: LUCIFERASE INFECTION ASSAY - IC50): 5.59 µM |
| CN1/C(=C\C(=O)CSc2nc(N)c3ccsc3n2)C(C)(C)c2ccccc21 | > 10 µM | IC50 (PBLUC_HILL_SLOPE 1.96, PBLUC_R_SQUARED 0.352, read-out: LUCIFERASE INFECTION ASSAY - IC50): 8.34 µM |
| CC(Sc1nnc(-c2ccc(C(C)(C)C)cc2)o1)C(=O)NCc1ccccc1Cl (stereo not given) | > 10 µM | IC50 (PBLUC_HILL_SLOPE 1.93, PBLUC_R_SQUARED 0.876, read-out: LUCIFERASE INFECTION ASSAY - IC50): 4.14 µM |
| CCN(CC)c1ccc(NC(=O)c2c(F)cccc2F)c(N(CC)CC)n1 | > 8.77 µM | IC50 (PBLUC_HILL_SLOPE 1.91, PBLUC_R_SQUARED 0.469, read-out: LUCIFERASE INFECTION ASSAY - IC50): 5.46 µM |
| Cc1ccc(C)c(Sc2ccc(NC(=O)CN3C(=O)NC(Cc4ccccc4)C3=O)cc2)c1 (stereo not given) | > 10 µM | IC50 (PBLUC_HILL_SLOPE 1.97, PBLUC_R_SQUARED 0.872, read-out: LUCIFERASE INFECTION ASSAY - IC50): 5.94 µM |
| FC(F)(F)c1c(-c2ccccc2)c2cc(Cl)ccc2n1Cc1ccccc1 | > 8.55 µM | IC50 (PBLUC_HILL_SLOPE 1.92, PBLUC_R_SQUARED 0.0693, read-out: LUCIFERASE INFECTION ASSAY - IC50): 7.21 µM |
| CC(C)(C)NC(=S)N/N=C/c1ccnc(SCc2ccc(Cl)cc2)n1 | > 8.38 µM | IC50 (PBLUC_HILL_SLOPE 1.91, PBLUC_R_SQUARED 0.389, read-out: LUCIFERASE INFECTION ASSAY - IC50): 5.71 µM |
| O=C(NC(=S)Nc1ccc(Oc2cc(C(F)(F)F)cc(C(F)(F)F)c2)cc1)c1ccccc1 | 4.3 µM | IC50 (PBLUC_HILL_SLOPE 1.93, PBLUC_R_SQUARED 0.641, read-out: LUCIFERASE INFECTION ASSAY - IC50): 1.37 µM |
| Cc1cc(C(=O)Nc2ccc(OCc3ncc(C(F)(F)F)cc3Cl)cc2)no1 | 1.33 µM | IC50 (PBLUC_HILL_SLOPE 1.94, PBLUC_R_SQUARED 0.889, read-out: LUCIFERASE INFECTION ASSAY - IC50): 0.429 µM |
| O=C(c1ccccc1)c1ccc(OCC(O)CNC2CCCCCCC2)cc1 (stereo not given) | > 10 µM | IC50 (PBLUC_HILL_SLOPE 1.94, PBLUC_R_SQUARED 0.684, read-out: LUCIFERASE INFECTION ASSAY - IC50): 6.28 µM |
| Cc1ccc2[nH]c(=S)n(-c3cc(Cl)ccc3C)c(=O)c2c1 | > 10.4 µM | IC50 (PBLUC_HILL_SLOPE 1.97, PBLUC_R_SQUARED 0.142, read-out: LUCIFERASE INFECTION ASSAY - IC50): 9.2 µM |
| Cc1csc(CNc2nc(-c3cccnc3)nc3sc(C)c(C)c23)n1 | 5.63 µM | IC50 (PBLUC_HILL_SLOPE 1.92, PBLUC_R_SQUARED 0.84, read-out: LUCIFERASE INFECTION ASSAY - IC50): 1.79 µM |
| OCCNc1nc(Oc2ccc(-c3ccccc3)cc2)nc2ccccc12 | 1.97 µM | IC50 (PBLUC_HILL_SLOPE 1.95, PBLUC_R_SQUARED 0.572, read-out: LUCIFERASE INFECTION ASSAY - IC50): 0.64 µM |

| Compound | IC90 | also measured |
| --- | --- | --- |
| Fc1cccc(-n2ccnc2SCc2nc3ccccc3s2)c1 | > 10 µM | IC50 (PBLUC_HILL_SLOPE 1.97, PBLUC_R_SQUARED 0.394, read-out: LUCIFERASE INFECTION ASSAY - IC50): 6.86 µM |
| C=CCn1c(C)cc(C(=O)COC(=O)C(O)(c2ccccc2)c2ccccc2)c1C | 5.78 µM | IC50 (PBLUC_HILL_SLOPE 1.92, PBLUC_R_SQUARED 0.565, read-out: LUCIFERASE INFECTION ASSAY - IC50): 1.84 µM |
| Cc1cccc(NC(=O)c2ccc(Cl)c(S(=O)(=O)Nc3c(C)n(C)n(-c4ccccc4)c3=O)c2)n1 | > 10 µM | IC50 (PBLUC_HILL_SLOPE 1.97, PBLUC_R_SQUARED 0.221, read-out: LUCIFERASE INFECTION ASSAY - IC50): 9.2 µM |
| O=C(N/N=C/C1=C(N2CCOCC2)C(=C/c2ccc(Cl)cc2Cl)/CC1)c1ccco1 | 6.76 µM | IC50 (PBLUC_HILL_SLOPE 1.95, PBLUC_R_SQUARED 0.652, read-out: LUCIFERASE INFECTION ASSAY - IC50): 2.18 µM |
| Cc1cc(C(=O)N/N=C2\C(=O)Nc3ccccc32)c(C)n1-c1ccc(F)cc1 | > 10 µM | IC50 (PBLUC_HILL_SLOPE 1.9, PBLUC_R_SQUARED 0.511, read-out: LUCIFERASE INFECTION ASSAY - IC50): 3.94 µM |
| COc1cc2nc(-c3ccccc3)nc(N3CCN(CCN4CCCC4)CC3)c2cc1OC | 7.65 µM | IC50 (PBLUC_HILL_SLOPE 1.93, PBLUC_R_SQUARED 0.643, read-out: LUCIFERASE INFECTION ASSAY - IC50): 2.46 µM |
| Cn1c(N)c(C(=O)CSc2nnc(-c3ccccc3)c(-c3ccccc3)n2)c(=O)n(C)c1=O | > 10 µM | IC50 (PBLUC_HILL_SLOPE 1.94, PBLUC_R_SQUARED 0.495, read-out: LUCIFERASE INFECTION ASSAY - IC50): 3.75 µM |
| CSc1c(C#N)c(-c2ccc(Cl)cc2)nn1C(=O)C(C)C | > 10.3 µM | IC50 (PBLUC_HILL_SLOPE 1.94, PBLUC_R_SQUARED 0.662, read-out: LUCIFERASE INFECTION ASSAY - IC50): > 10.3 µM |
| CNC(=O)c1nn(CC2CCCCC2)c2c1CC(NC1CCN(Cc3ccccc3)CC1)CC2 (stereo not given) | > 7.12 µM | IC50 (PBLUC_HILL_SLOPE 1.91, PBLUC_R_SQUARED 0.276, read-out: LUCIFERASE INFECTION ASSAY - IC50): 6.52 µM |
| CC(=O)n1nc(NCc2cccc(Cl)c2)nc1NCc1cccc(Cl)c1 | > 8.46 µM | IC50 (PBLUC_HILL_SLOPE 1.95, PBLUC_R_SQUARED 0.375, read-out: LUCIFERASE INFECTION ASSAY - IC50): 4.3 µM |
| Cc1cc(C)c(C(=O)C2CCN(C(=O)c3cccs3)CC2)c(C)c1 | > 9.66 µM | IC50 (PBLUC_HILL_SLOPE 1.97, PBLUC_R_SQUARED 0.657, read-out: LUCIFERASE INFECTION ASSAY - IC50): 3.99 µM |
| Fc1ccc(-c2cnn3c(NCCCN4CCOCC4)ccnc23)cc1Cl | > 8.46 µM | IC50 (PBLUC_HILL_SLOPE 1.9, PBLUC_R_SQUARED 0.489, read-out: LUCIFERASE INFECTION ASSAY - IC50): 4.05 µM |
| COc1ccc2nc(C)cc(NC(C)CCc3ccccc3)c2c1 (stereo not given) | > 10 µM | IC50 (PBLUC_HILL_SLOPE 1.9, PBLUC_R_SQUARED 0.397, read-out: LUCIFERASE INFECTION ASSAY - IC50): 6.04 µM |
| CCOC(=O)c1sc(N)c(C#N)c1CSc1ncc(C(F)(F)F)cc1Cl | > 10 µM | IC50 (PBLUC_HILL_SLOPE 1.96, PBLUC_R_SQUARED 0.0831, read-out: LUCIFERASE INFECTION ASSAY - IC50): > 10 µM |
| O=C(Oc1ccc(/C=N/n2cnnc2)cc1)c1ccco1 | > 10 µM | IC50 (PBLUC_HILL_SLOPE 1.92, PBLUC_R_SQUARED 0.124, read-out: LUCIFERASE INFECTION ASSAY - IC50): > 10 µM |
| Cc1cccc(N2CCN(C(=O)c3cc4ccccc4o3)CC2C)c1 (stereo not given) | > 10 µM | IC50 (PBLUC_HILL_SLOPE 1.92, PBLUC_R_SQUARED 0.443, read-out: LUCIFERASE INFECTION ASSAY - IC50): 4.83 µM |
| c1ccc(Oc2cccc(-c3ccc4nnc(-c5ccc6c(c5)OCO6)n4c3)c2)cc1 | > 10 µM | IC50 (PBLUC_HILL_SLOPE 1.92, PBLUC_R_SQUARED 0.18, read-out: LUCIFERASE INFECTION ASSAY - IC50): 8.29 µM |
| O=C(Nc1ccc(F)cc1F)Nc1cc(Cl)sc1Cl | > 10.2 µM | IC50 (PBLUC_HILL_SLOPE 1.97, PBLUC_R_SQUARED 0.405, read-out: LUCIFERASE INFECTION ASSAY - IC50): 6.86 µM |
| COc1ccc2nc(-c3ccccc3)cc(NCCN(C)C)c2c1 | > 10.3 µM | IC50 (PBLUC_HILL_SLOPE 1.97, PBLUC_R_SQUARED 0.162, read-out: LUCIFERASE INFECTION ASSAY - IC50): 4.55 µM |
| O=C(Nc1ccc(-n2ccc(C(F)(F)F)n2)cc1)c1cccs1 | 3.61 µM | IC50 (PBLUC_HILL_SLOPE 1.9, PBLUC_R_SQUARED 0.777, read-out: LUCIFERASE INFECTION ASSAY - IC50): 1.14 µM |
